Laboratory results taken from ChEMBL document CHEMBL1201862, “PubChem BioAssay data set” (2004).
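Dose response: 5 concentrations. Exposure: 48 h. Format: 96-well plates. Endpoint: linear interpolation; highest concentration if not reached. GI50 is the concentration that inhibits growth by half.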 Activity calls are given as the source filed them. Cut-off read from the data, not from the text of the source: active = GI50 up to about 1.1 µM and inactive = higher.

Tests used:
Assay in all cases: NCI anticancer screen, dose series, 48 h
SK-MEL-2 = test system: SK-MEL-2
SK-MEL-5 = test system: SK-MEL-5
ACHN = test system: ACHN
CAKI-1 = test system: CAKI-1
UACC-257 = test system: UACC-257
K562 = test system: K562
NCI-H460 = test system: NCI-H460
IGROV-1 = test system: IGROV-1
HCT-15 = test system: HCT-15
Malme-3M = test system: Malme-3M
SN12C = test system: SN12C
RPMI-8226 = test system: RPMI-8226
U-251 = test system: U-251
SW-620 = test system: SW-620
LOX IMVI = test system: LOX IMVI
HOP-62 = test system: HOP-62
HCC 2998 = test system: HCC 2998

Cc1cc(Cl)ccc1NC(=O)CCCC(=O)C1CCC/C1=N\NC(=O)CC#N (stereo not given)
GI50 (SK-MEL-2): > 100 µM (inactive) | GI50 (SK-MEL-5): > 100 µM (inactive) | GI50 (ACHN): > 100 µM (inactive) | GI50 (CAKI-1): > 100 µM (inactive) | GI50 (UACC-257): > 100 µM (inactive) | GI50 (K562): > 100 µM (inactive) | GI50 (NCI-H460): > 100 µM (inactive) | GI50 (IGROV-1): > 100 µM (inactive) | GI50 (HCT-15): > 100 µM | GI50 (Malme-3M): > 100 µM (inactive) | GI50 (SN12C): > 100 µM (inactive) | GI50 (RPMI-8226): 75.3 µM (inactive) | GI50 (U-251): > 100 µM (inactive) | GI50 (SW-620): > 100 µM (inactive)

CCCCCC(=O)OCCOCCOCCOCCOCCOCc1ccccc1
GI50 (LOX IMVI): > 100 µM (inactive) | GI50 (SK-MEL-2): > 100 µM (inactive) | GI50 (SK-MEL-5): > 100 µM (inactive) | GI50 (ACHN): > 100 µM (inactive) | GI50 (CAKI-1): > 100 µM (inactive) | GI50 (UACC-257): > 100 µM (inactive) | GI50 (NCI-H460): > 100 µM (inactive) | GI50 (IGROV-1): > 100 µM (inactive) | GI50 (HCT-15): > 100 µM | GI50 (Malme-3M): > 100 µM (inactive) | GI50 (SN12C): > 100 µM (inactive) | GI50 (HOP-62): > 100 µM (inactive) | GI50 (U-251): > 100 µM (inactive) | GI50 (SW-620): > 100 µM (inactive)

[Zn+2][N+]12CCN3CCN4CCN(CC1)[PH]432 (stereo not given)
GI50 (LOX IMVI): > 100 µM (inactive) | GI50 (SK-MEL-2): > 100 µM (inactive) | GI50 (SK-MEL-5): > 100 µM (inactive) | GI50 (ACHN): > 100 µM (inactive) | GI50 (UACC-257): > 100 µM (inactive) | GI50 (HCC 2998): > 100 µM (inactive) | GI50 (K562): > 100 µM (inactive) | GI50 (NCI-H460): > 100 µM (inactive) | GI50 (IGROV-1): > 100 µM (inactive) | GI50 (HCT-15): > 100 µM | GI50 (Malme-3M): > 100 µM (inactive) | GI50 (SN12C): > 100 µM (inactive) | GI50 (HOP-62): > 100 µM (inactive) | GI50 (RPMI-8226): > 100 µM (inactive) | GI50 (U-251): > 100 µM (inactive) | GI50 (SW-620): > 100 µM (inactive)

O=C(/C=C1/NC(=O)CS1)Nc1ccccc1
GI50 (LOX IMVI): > 10 µM (inactive) | GI50 (SK-MEL-2): 89.5 µM (inactive) | GI50 (SK-MEL-5): > 100 µM (inactive) | GI50 (CAKI-1): > 100 µM (inactive) | GI50 (HCC 2998): > 100 µM (inactive) | GI50 (K562): > 100 µM (inactive) | GI50 (NCI-H460): > 100 µM (inactive) | GI50 (IGROV-1): > 100 µM (inactive) | GI50 (Malme-3M): 30.8 µM (inactive) | GI50 (SN12C): > 100 µM (inactive) | GI50 (HOP-62): > 100 µM (inactive) | GI50 (RPMI-8226): > 100 µM (inactive) | GI50 (U-251): > 100 µM (inactive) | GI50 (SW-620): > 100 µM (inactive)

C=CCN(N=O)C(=O)N(CCC)CCCC(NC(C)=O)C(=O)NCc1ccccc1 (stereo not given)
GI50 (LOX IMVI): > 100 µM (inactive) | GI50 (SK-MEL-2): > 100 µM (inactive) | GI50 (SK-MEL-5): > 100 µM (inactive) | GI50 (ACHN): > 100 µM (inactive) | GI50 (CAKI-1): > 100 µM (inactive) | GI50 (UACC-257): > 100 µM (inactive) | GI50 (K562): > 100 µM (inactive) | GI50 (NCI-H460): > 100 µM (inactive) | GI50 (IGROV-1): > 100 µM (inactive) | GI50 (HCT-15): > 100 µM | GI50 (Malme-3M): > 100 µM (inactive) | GI50 (SN12C): > 100 µM (inactive) | GI50 (HOP-62): > 100 µM (inactive) | GI50 (RPMI-8226): > 100 µM (inactive) | GI50 (U-251): > 100 µM (inactive) | GI50 (SW-620): > 100 µM (inactive)

CN(C)CCNC(=O)c1ccccc1Nc1c(Cl)cccc1Cl
GI50 (LOX IMVI): 12.8 µM (inactive) | GI50 (SK-MEL-5): 2.89 µM (inactive) | GI50 (ACHN): 8.75 µM (inactive) | GI50 (UACC-257): 5.75 µM (inactive) | GI50 (HCC 2998): 10.6 µM (inactive) | GI50 (K562): 13.4 µM (inactive) | GI50 (IGROV-1): 18.2 µM (inactive) | GI50 (HCT-15): 14.8 µM | GI50 (SN12C): 15.1 µM (inactive) | GI50 (HOP-62): 13.7 µM (inactive) | GI50 (RPMI-8226): 11.9 µM (inactive) | GI50 (U-251): 11.6 µM (inactive) | GI50 (SW-620): 14.1 µM (inactive)

COC(=O)/C(=N\NC(N)=O)C(C(=O)C=C(C)C)C(=O)C(=O)Nc1ccc(Cl)c(Cl)c1 (stereo not given)
GI50 (LOX IMVI): > 100 µM (inactive) | GI50 (SK-MEL-2): > 100 µM (inactive) | GI50 (SK-MEL-5): > 100 µM (inactive) | GI50 (ACHN): > 100 µM (inactive) | GI50 (CAKI-1): > 100 µM (inactive) | GI50 (UACC-257): > 100 µM (inactive) | GI50 (HCC 2998): > 100 µM (inactive) | GI50 (K562): > 100 µM (inactive) | GI50 (NCI-H460): > 100 µM (inactive) | GI50 (IGROV-1): > 100 µM (inactive) | GI50 (HCT-15): > 100 µM | GI50 (Malme-3M): > 100 µM (inactive) | GI50 (SN12C): > 100 µM (inactive) | GI50 (HOP-62): > 100 µM (inactive) | GI50 (U-251): > 100 µM (inactive) | GI50 (SW-620): > 100 µM (inactive)

CC(C)N1C(C)[C@@H](c2ccccc2)O[P@]1(=O)CC1=CCCCC1 (stereo not given in full)
GI50 (LOX IMVI): 74.1 µM (inactive) | GI50 (SK-MEL-2): > 100 µM (inactive) | GI50 (SK-MEL-5): 45.2 µM (inactive) | GI50 (ACHN): > 100 µM (inactive) | GI50 (UACC-257): 68.1 µM (inactive) | GI50 (HCC 2998): 99.3 µM (inactive) | GI50 (K562): 49.3 µM (inactive) | GI50 (NCI-H460): 87.1 µM (inactive) | GI50 (IGROV-1): > 100 µM (inactive) | GI50 (HCT-15): > 100 µM | GI50 (Malme-3M): > 100 µM (inactive) | GI50 (SN12C): > 100 µM (inactive) | GI50 (HOP-62): > 100 µM (inactive) | GI50 (RPMI-8226): 62.8 µM (inactive) | GI50 (U-251): > 100 µM (inactive) | GI50 (SW-620): 61.2 µM (inactive)

CC(=O)NC(ON1C(=O)COc2ccccc21)C(Cl)(Cl)Cl (stereo not given)
GI50 (LOX IMVI): > 100 µM (inactive) | GI50 (SK-MEL-2): > 100 µM (inactive) | GI50 (ACHN): > 100 µM (inactive) | GI50 (CAKI-1): > 100 µM (inactive) | GI50 (UACC-257): > 100 µM (inactive) | GI50 (HCC 2998): > 100 µM (inactive) | GI50 (K562): > 100 µM (inactive) | GI50 (NCI-H460): > 100 µM (inactive) | GI50 (IGROV-1): > 100 µM (inactive) | GI50 (HCT-15): > 100 µM | GI50 (Malme-3M): > 100 µM (inactive) | GI50 (SN12C): > 100 µM (inactive) | GI50 (HOP-62): > 100 µM (inactive) | GI50 (RPMI-8226): > 100 µM (inactive) | GI50 (U-251): > 100 µM (inactive) | GI50 (SW-620): > 100 µM (inactive)
